Data from patent US6362217B1, “Taxane anticancer agents” (Bristol-Myers Squibb Company, priority 2000, dated 2002).
Marks after values point to notes of the source that are not given here.

Key:
[1] = system: murine lung carcinoma, M109; assay: In vivo antitumor testing, sc M109 tumor model; parameters: species or system mice; settings: for iv activity compared to concomitantly evaluated iv paclitaxel: scM109 tumors
Description: (§1) Animals. Conventional or athymic (“nude”) mice, and nude rats, were implanted subcutaneously (sc) with tumor brei or fragments. Murine tumor were implanted in conventional mice, human tumors were implanted into nude mice or rats.
(§2) Tumors. A variety of tumors have been utilized but not all of them have necessarily been used to evaluate each and every taxane. The tumors utilized most often included the murine lung carcinoma, M109, the murine mammary carcinoma, MAM 16/C, the human ovarian carcinoma. A2780, the human colon tumors, HCT-116 and HCT-116/pk.
(§3) Treatments are initiated at differing times post-implantation depending upon the desired stringency of the test system; in general, the greater the delay post-tumor implantation, the larger the tumors at the start of therapy. Typically, treatments were begun in the M109 tumor model on Day 4 post-tumor implant, Day 7 in the MAM 16/C tumor model, and when tumors were between 100 and 500 mg in size (typically Day 7 to Day 12 post-tumor implant) for each of the human tumor xenograft models (e.g., A2780, HCT-116 and HCT-116/pk). Group sizes were typically 8 per treatment and control groups in mouse experiments and 7 per treatment and control groups in rat experiments.
Treatments for taxanes administered orally (po) were done by gavage using a vehicle consisting of 10% ethanol +10% Cremophor EL+80% water. The volume of liquid administered was 0.01 ml per gram of body weight for mice, and 0.005 ml per gram of body weight for rats. A typical mouse experiment would involve the evaluation of each test compound at three different dose levels, but only one to three test groups per compound were included in rat experiments. In every experiment, intravenously (iv) administered paclitaxel was included as a reference drug.
(§4) Paclitaxel was administered iv on treatment schedules and doses established from experience as being optimal, or near optimal, for the particular tumor, tumor staging, and host animal under study. It was given once daily, for five consecutive daily treatments (i.e., qd×5), when evaluated in the M109 and MAM 16/C tumor models, once daily every other day for five treatments (i.e., q2d×5) when administered to mice bearing human tumors, and once daily every other or every fourth day for five or three treatments, respectively (i.e., q2d×5 or q4d×3), to rats.
(§5) Orally administered taxanes were evaluated on the same treatment schedules just described for iv administered paclitaxel, plus other treatment schedules such as daily for nine days, or every eight days for two treatments.
Antitumor activity was assessed by determining the size of tumors in all treated and control experimental animals over time. Each animal was individually identified and the growth of the tumor implanted into each animal was measured once or twice weekly using a calipers. The difference in median time for tumors in treated (T) and control (C) groups to reach a predetermined size (e.g., 500 or 1,000 milligrams) was calculated, and assessments of absolute and relative antitumor effects (e.g., between compounds) were made on the basis of the delays in time to reach predetermined tumor target sizes. Animals with tumors of 35 mg or less at the termination of an experiment were termed “cures”. Experiments were terminated typically after a period of time had elapsed post-treatment that was at least 10 times the tumor volume doubling time (TVDT) of the median tumor growth in control animals as assessed prior to their reaching the predetermined tumor target size in each experiment. Activity in a test group was defined as having caused a delay in tumor growth (median time to reach tumor target size) relative to the concomitant control tumor growth (i.e. T-C) of 3.32 times the TVDT. Activity was expressed in log cell kill which was equal to (T-C)/(TVDT×3.32). Toxicity was determined by measuring the average body weight of all animals in an experiment prior to, and soon after, any treatments in the experiment. […]

[2] = system: HCT-116 human colon carcinoma cells; assay: Cytotoxicity, MTS assay; type: cell-based; settings: MTS procedure, 72 hours incubation
Method: (§6) Cytoxicity was assessed in HCT-116 human colon carcinoma cells by either using an XTT or MTS procedure.
Cytoxicity was assessed in HCT-116 human colon carcinoma cells by MTS (3-(4,5-dimethylthiazol-2-yl)-5-(3-carboxymethoxyphenyl)-2-(4-sulphenyl)-2H-tetrazolium, inner salt) assay as reported in T. L. Riss, et. al., “Comparison of MTT, XTT, and a novel tetrazolium compound MTS for in vitro proliferation and chemosensitivity assays.” Mol. Biol. Cell 3 (Suppl.):184a, 1992. Cells were plated at 4,000 cell/well in 96 well microtiter plates and 24 hours later drugs were added and serial diluted. The cells were incubated at 37° form 72 hours at which time the tetrazolium dye, MTS at 333 μg/ml (final concentration), in combination with the electron coupling agent phenazine methosulfate at 25 μM (final concentration) was added. A dehydrogenase enzyme in live cells reduces the MTS to a form that absorbs light at […] which can be quantitated spectrophotometrically. The greater the absorbance the greater the number of live cells. The results are expressed as an IC50, which is the drug concentration required to inhibit cell proliferation (i.e. absorbance at 450 nm) to 50% of that of untreated control cells. The IC50 values for compounds evaluated in this assay are evaluated in Table I.

[3] = system: human ovarian carcinoma A2780; assay: In vivo antitumor testing, A2780 xenograft model; parameters: species or system nude mice
Description: as §1, §2, §3
Treatments for taxanes administered orally (po) were done by gavage using a vehicle consisting of 10% ethanol +10% Cremophor EL+80% water. […]
as §4, §5
Antitumor activity was assessed by determining the size of tumors in all treated and control experimental animals over time. Each animal was individually identified and the growth of the tumor implanted into each animal was measured once or twice weekly using a calipers. The difference in median time for tumors in treated (T) and control (C) groups to reach a predetermined size (e.g., 500 or 1,000 milligrams) was calculated, and assessments of absolute and relative antitumor effects (e.g., between compounds) were made on the basis of the delays in time to reach predetermined tumor target sizes. […]

[4] = system: HCT-116 human colon carcinoma cells; assay: Cytotoxicity, XTT assay; type: cell-based; settings: XTT procedure, 72 hours incubation
Method: as §6
Cytotoxicity was assessed in HCT-116 human colon carcinoma cells by XTT (2,3-bis(2-methoxy-4-nitro-5-sulfpphenyl)-5-[(phenylamino)carbonyl]2H-tetrazolium hydroxide) assay as reported in D. A. Scudiero, et al., “Evaluation of soluble tetrazolium/formazan assay for cell growth and drug sensitivity in culture using human and other tumor cell lines,” Cancer Res. 48:4827-4833, 1988. Cells were plated at 4000 cells/well in 96 well microtiter plates and 24 hours later drugs were added and serial diluted. The cells were incubated at 37° C. for 72 hours at which time the tetrazolium dye, XTT, was added. A dehydrogenase enzyme in live cells reduces the XTT to a form that absorbs light at 450 nm which can be quantitated spectrophotometrically. The greater the absorbance, the greater the number of live cells. The results are expressed as an IC50, which is the drug concentration required to inhibit cell proliferation (i.e., absorbance at 450 nm) to 50% of that of untreated control cells.

[5] = human or animal models, prior art; cited from earlier work

3′N-(2-furoyl)-7-deoxy paclitaxel [Ib]
IV Activity in LCK ([1]; iv, 20 mg/kg per injection, M109): 0.7 LCK
iv activity compared to concomitantly evaluated iv paclitaxel ([1]; iv): equiactive to paclitaxel
oral activity ([1]; oral, M109 model): active orally
PO Activity in LCK ([1]; po, 40 mg/kg per administration, M109): 0.7 LCK
IC50 [2]: 0.85 nM
oral activity compared to optimal iv paclitaxel ([3]; oral, A2780 model): equallyactive if not better
PO Activity in LCK ([3]; po, 85 mg/kg per administration, A2780): >7 LCK
Cures (mice cured / tested) ([3]; po, 85 mg/kg per administration, A2780, cure = tumor of 35 mg or less at termination): (1/8)**

7-deoxy-3′-(4-hydroxyphenyl)-3′N-t-butoxycarbonyl paclitaxel [Compound Ia]
IV Activity in LCK ([1]; iv, 13 mg/kg per injection, M109, log cell kill = (T-C)/(TVDT×3.32)): 1.4 LCK
iv activity compared to concomitantly evaluated iv paclitaxel ([1]; iv): surprising activity
IC50 [2]: 4.3 nM

10-(2-amino)benzoyl-7-deoxy paclitaxel [Ih]
IC50 [4]: 102 nM

CC(=O)OC12COC1CCC1(C)C(=O)C(OC(=O)N3CCOCC3)C3=C(C)C(OC(=O)C(O)C(NC(=O)c4ccccc4)c4ccccc4)CC(O)(C(OC(=O)c4ccccc4)C12)C3(C)C (stereo not drawn) [Ic, 10-Morpholinoyl-7-deoxy paclitaxel]
IC50 [4]: 1.49 nM

CCCCCCCC(=O)OC1C(=O)C2(C)CCC3OCC3(OC(C)=O)C2C(OC(=O)c2ccccc2)C2(O)CC(OC(=O)C(O)C(NC(=O)c3ccccc3)c3ccccc3)C(C)=C1C2(C)C (stereo not drawn) [Id, 10-Octanoyl-7-deoxy paclitaxel]
IC50 [4]: 98.2 nM

CC(=O)OC12COC1CCC1(C)C(=O)C(OC(=O)COc3ccccc3)C3=C(C)C(OC(=O)C(O)C(NC(=O)c4ccccc4)c4ccccc4)CC(O)(C(OC(=O)c4ccccc4)C12)C3(C)C (stereo not drawn) [Ie, 10-Phenoxyacetyl-7-deoxy paclitaxel]
IC50 [4]: 8.09 nM

CC(=O)OC12COC1CCC1(C)C(=O)C(OC(=O)c3ccccc3[N+](=O)[O-])C3=C(C)C(OC(=O)C(O)C(NC(=O)c4ccccc4)c4ccccc4)CC(O)(C(OC(=O)c4ccccc4)C12)C3(C)C (stereo not drawn) [If, 10-(2-Nitro)benzoyl-7-deoxy paclitaxel]
IC50 [4]: 13.3 nM

CC(=O)OC12COC1CCC1(C)C(=O)C(OC(=O)C=Cc3ccccc3)C3=C(C)C(OC(=O)C(O)C(NC(=O)c4ccccc4)c4ccccc4)CC(O)(C(OC(=O)c4ccccc4)C12)C3(C)C (stereo not drawn) [Ig, 10-Cinnamoyl-7-deoxy paclitaxel]
IC50 [4]: 28.4 nM

CC(=O)O[C@H]1C(=O)[C@@]2(C)[C@H]([C@H](OC(=O)c3ccccc3)[C@]3(O)C[C@H](OC(=O)[C@H](O)[C@@H](NC(=O)c4ccccc4)c4ccccc4)C(C)=C1C3(C)C)[C@]1(OC(C)=O)CO[C@@H]1C[C@@H]2O [Paclitaxel, paclitaxel, reference compound]
oral activity [5]: no oral activity
Optimal Activity of iv Paclitaxel ([1]; iv, optimal dose and schedule (qd×5), M109, concomitantly evaluated): 0.7 LCK
Optimal Activity of iv Paclitaxel ([3]; iv, optimal dose and schedule (q2d×5), A2780, concomitantly evaluated): 5.9 LCK

CC(=O)O[C@@]12CO[C@@H]1C[C@H](O)[C@@]1(C)C(=O)[C@H](O)C3=C(C)[C@@H](OC(=O)[C@H](O)[C@@H](NC(=O)OC(C)(C)C)c4ccccc4)C[C@@](O)([C@@H](OC(=O)c4ccccc4)[C@H]21)C3(C)C [TAXOTERE®, docetaxel]
oral activity [5]: no oral activity
